Legend:
184B5 = experiment: SRB antiproliferative assay, 184B5 non-cancer breast cells; type: cell-based, human; details: Homo sapiens, 184B5, SRB
Description: Antiproliferative effects were determined by a sulforhodamine B (SRB) based protocol. For a typical screening experiment, 5,000-10,000 cells were inoculated into 100 μl medium per well of a 96-well microtiter plate as described previously. […] Some of the sample wells were fixed with 25 μl of 50% trichloroacetic acid (TCA) as a control of the cell population for each cell line at the time of drug addition (Tz). An aliquot of the frozen stock was thawed and diluted to the desired final maximum test-concentration with complete medium. Two to ten-fold serial dilutions were made to provide a total of seven drug concentrations (and a control [C]). Following addition of drugs, the culture plate was incubated for additional 48 h. Cells were fixed in situ by slowly adding 25 μl of ice-cold 50% (w/v) TCA (final concentration, 10% TCA), and were then incubated for 60 min at 4° C. The supernatant was discarded, and the plate was washed five times with tap water, followed by air-dry. 50 μl of SRB solution at 0.4% (w/v) in 1% acetic acid was added to each well, and the plate was incubated for >30 min at room temperature. Unbound SRB was removed by five washes with tap water, followed by air-drying. […] The relative growth rate (%) was calculated for each of the compound concentrations according to the following formula: (Ti−Tz)/(C−Tz)×100 In the formula, time zero (Tz), control growth (C), and OD for different concentration of tested compounds (Ti). The GI50 for each compound was obtained from a non-linear Sigmoidal dose-response (variable slope) curve which is fitted by GraphPad Prism™ v.4.03 software. Values were calculated for each of these parameters if the level of activity was reached. However, if the effect was not reached or was exceeded, the value for that parameter was expressed as greater or less than the maximum or minimum concentration tested. Flow Cytometry

HeLa S3 cells = experiment: Western blot, immunostaining and immunoprecipitation of cell cycle proteins, HeLa S3 cells; type: cell-based
Excerpt: All immunocytochemistry experiments were visualized by confocal microscopy using a Zeiss 510 Meta laser scanning microscope (Carl Zeiss) equipped with a 63× objective lens, unless otherwise specified herein. Three lasers were utilized for excitation with the following band pass filter settings used for detection: Argon 488 nm (band pass 505-530), HeNe 543 nm (long pass 560) and 633 nm (long pass 650). All images were captured and analyzed using LSM 510 software included with the microscope (LSM Image Examiner™, Carl Zeiss).
The synchronization at the G1/S border (more accurately at the beginning of S phase) was achieved by double thymidine block (DT). Briefly, exponentially growing cells are treated with 2.0 mM thymidine for 18 hours, followed by incubation for 11 hours in drug-free complete medium, by which time most cells are at mid-late G1 phase. The cells are then incubated for another 14 hours in 2.0 mM thymidine to arrest them at the G1/S border. To arrest cells at the G2/M phase, cells were maintained for 18 hours in complete medium containing nocodazole (50 ng/ml). Both these synchronization are reversible.
Under the experimental conditions, some of the cells were still stuck at G2/M until 8 hour post-drug treatment. “Asynchr” denotes asynchronous cells. 0 hour is the end of nocodazole treatment (i.e., 18 hours in 50 ng/ml nocodazole). At 0 hour, cells were released into complete medium in the absence (control) or presence of 5 μM VR-23 for 2, 4, or 8 hours as indicated. […] Extracts prepared from HeLa S3 cells treated with VR-23 in early-S phase (0 hour post double thymidine treatment), G2/M (arrested by nocodazole), or late G1 (6 hour post nocodazole) were subjected to Western blotting with anti-PARP1 antibody to detect proteins associated with apoptotic activities.
Evaluation of apoptosis in VR-23 treated and untreated control cells (FIG. 8). Treatment of cells in late G1 with VR-23 delayed their progression into S phase. HeLa S3 cells arrested in G2-M phase by nocodazole (50 ng/ml, 18 hours) were incubated in drug-free complete medium for 2, 4 or 6 hours (numbers in brackets), followed by incubation for 2 or 6 hours (+h) in the absence (control) (FIG. 8A) or presence (FIG. 8B) of 10 μM VR-23. […] By (6)+6 hours, most of the control cells already progressed into S phase, but VR-23-treated cells were still in G1 (long and short arrows, respectively). […] Under normal growth conditions, cyclin E expression peaks in late G1 and rapidly levels off as a cell enters S phase, at which time cyclin A expression rapidly increases. […] Thus cells treated with VR-23 were still in G1 phase because cyclin E was not degraded and cyclin A was not induced in a timely manner.
HeLa S3 cells arrested at G1/S by DT were released into cell cycle for 1-3 hours in the absence (control) (FIG. 16A) or presence (FIG. 16B) of VR-23. Cells were then fixed and immunostained with antibodies specific for γ-tubulin and cyclin E, or DNA stained. […] In contrast, cyclin E was localized to the centrosomes by 3 hour post-DT in cells exposed to VR-23 (see inset boxes of FIG. 16B). […] It is noted that proteasomes are localized to the centrosomes^12,13.
HeLa S3 cells synchronized at the G1/S border by DT were released into cell cycle at time 0 hour. Cells were then allowed to progress through S phase for 1 hour (FIG. 17A) or 3 hours (FIG. 17B) in the absence (control) or presence of VR-23. Plk1 was not localized to the centrosome at 1 hour post-DT either in VR-23 treated or untreated control cells. However, unlike in the control, all of the (amplified) centrosomes in cells exposed to VR-23 contained Plk1 by 3 hour post-DT. It was occasionally observed that one of the two centrosomes in untreated cells also contained plk1 at 3 hour post-DT (dotted arrow).
HeLa S3 cells synchronized at G1/S by DT were released into normal growth medium at 0 hour for 1-3 hours in absence (control) (FIG. 18A) or the presence (FIG. 18B) of VR-23. […]

[1] = 10 μM VR-23 after nocodazole release
[2] = released from DT for 1-3 hours with VR-23

## O=[N+]([O-])c1ccc(S(=O)(=O)N2CCN(c3ccnc4cc(Cl)ccc34)CC2)c([N+](=O)[O-])c1 [Compound 1, 7-Chloro-4-(4-(2,4-dinitrophenylsulfonyl)piperazin-1-yl)quinoline]
184B5
  IC50: 9 ± 0.1 µM
184B5; 48 h, read-out: GI50 184B5
  GI50: 8.99 ± 0.12 µM
HeLa S3 cells; 10 μM VR-23, 2 hour post-treatment
  Levels of cyclins B and E: higher in the VR-23 treated cells than the control
HeLa S3 cells; 10 μM VR-23, (6)+6 hours
  Levels of cyclin E and cyclin A (Western blot): a high level of cyclin E and a lack of detectable cyclin A
HeLa S3 cells; [1]
  Cell cycle arrest (immunoprecipitation): caused cell cycle arrest prior to mitotic checkpoint
  Cell cycle arrest point and Cdk1 status: arrested at prometaphase through the inactivation of Cdk1
HeLa S3 cells; VR-23 in early-S, G2/M or late G1
  PARP1 cleavage (Western blot): showed PARP1 cleavage
HeLa S3 cells; [2]
  Centrosomal localization of Plk4: disrupted
  Cyclin E localization: localized to the centrosome by 3 hour post-DT
HeLa S3 cells; released from DT for 1 or 3 hours with VR-23
  Plk1 localization: localized to the centrosome by 3 hour post-DT
